Assay results from patent US20140256771A1, “COMPOUNDS THAT MODULATE INTRACELLULAR CALCIUM” (CalciMedica, Inc., priority 2011, published 2014).
Read-outs that look alike come from different tables or passages of the source.

Key:
Orai1/STIM1 = molecular target: T1, Orai1/STIM1 (Homo sapiens, UniProt Q96D31); experiment: Fluorescence-based assay of store-operated calcium entry in Orai1/STIM1 stable cells; format: cell-based; design: key to Orai1/STIM1 (IC50, μmol): A < 0.6 μmol; 0.6 μmol ≦ B ≦ 1.2 μmol; C > 1.2 μmol; — = no fit; settings: HEK-293 cells stably expressing human STIM1 and Orai1, 50% inhibition of Peak-Basal fluo-4 signal; for IC50: read-out: Orai1/STIM1 (IC50, μmol)
T1 construct: expressed in transfected cells; host or cells: HEK-293
T1 sequence (Q96D31 whole entry): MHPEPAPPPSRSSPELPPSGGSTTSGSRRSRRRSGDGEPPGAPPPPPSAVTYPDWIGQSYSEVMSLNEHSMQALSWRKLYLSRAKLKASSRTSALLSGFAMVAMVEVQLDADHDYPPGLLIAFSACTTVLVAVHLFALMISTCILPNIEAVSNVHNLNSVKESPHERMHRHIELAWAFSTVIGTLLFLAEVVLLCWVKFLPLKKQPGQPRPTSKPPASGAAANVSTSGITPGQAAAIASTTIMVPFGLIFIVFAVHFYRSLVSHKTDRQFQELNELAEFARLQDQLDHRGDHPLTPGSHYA
Protocol: A. Fluorescence-based Assay of Store-Operated Calcium Entry in Orai1/STIM1 Stable Cells.
Cells stably expressing recombinant human STIM1 and Orai1 are generated by transfecting a human Orai1 expression plasmid (pcDNA3.1-Orai1-cmyc) into HEK-293 cells stably overexpressing human STIM1 (Roos et al. 2005 JCB 169(3): 435-445). Colonies of cells stably expressing both STIM1 and Orai1 proteins are selected and then subcloned by limiting dilution. Cells were cultured at 37° C./6% CO2 in complete medium with 10% FBS and appropriate selection markers.
The day prior to performing the assay Orai1/STIM1 stable cells are plated in 50 μL of complete medium at 90-95% confluence in a 384 well plate. Cells are grown at 37° C./6% CO2 overnight. On the day of the assay, 1.5 μM fluo-4-AM (Invitrogen) in complete medium is added to the cells, which are then incubated for 1 hour at RT. Cells are washed once in Ca^2+-free HBSS (Hank's buffered saline solution) and 35 μl of Ca^2+-free HBSS is added to each well. Test compounds are added to wells in a 10 μL Ca^2+-free HBSS solution, prepared at 4.5× the desired final concentration, and incubated for 30 minutes at RT. The initial baseline fluorescence signal is then measured with a FLIPR^384 (Molecular Devices) plate reader. Calcium entry is initiated by adding 5 μl of 10× CaCl2 (10 mM) in HBSS, and changes in cellular fluorescence are measured with the FLIPR^384 plate reader. In each well, the magnitude of the fluorescence signal as a result of calcium entry into the cell is determined by calculating the difference between the peak fluorescence signal measured after calcium addition and the initial baseline fluorescence signal (designated Peak-Basal). IC50 values are typically calculated as the concentration that inhibited 50% of the Peak-Basal signal (Table A).

RBL-2H3 cells = experiment: Fluorescence-based assay of store-operated calcium entry in RBL-2H3 cells; format: cell-based, rat; design: key to RBL-2H3 (IC50, μmol): A < 0.6 μmol; 0.6 μmol ≦ B ≦ 1.2 μmol; C > 1.2 μmol; — = no fit; settings: thapsigargin store depletion, 50% inhibition of Upslope; for IC50: Rattus norvegicus, RBL-2H3, read-out: RBL-2H3 (IC50, μmol)
Protocol: B. Fluorescence-based Assay of Store-Operated Calcium Entry in RBL-2H3Cells.
RBL-2H3 cells are obtained from ATCC and maintained in complete medium with 10% FBS at 37° C./6% CO2.
The day prior to performing the assay, RBL-2H3 cells are plated in 50 μL of complete medium in a 384 well plate. Cells are grown at 37° C./6% CO2 overnight and grow to 50-60% confluence by the next day. On the assay day, 1.5 μM Fluo-4-AM dye (Invitrogen) in complete medium is added and incubated for 1 hour at RT. Cells are washed twice in Ca^2+-free HBSS buffer and 35 μL Ca^2+-free HBSS buffer is added to each well. 10 μL of a test compound prepared in a Ca^2+-free HBSS solution at 4.5× of the desired concentration is added to a well and incubated for 5 minutes at RT. 10 μL of thapsigargin prepared in a Ca^2+-free HBSS solution at 5.5× of the desired concentration (5.5 uM) is added to each well and incubated for an additional 25 minutes. The initial baseline fluorescence signal is measured with a FLIPR^384 (Molecular Devices) plate reader. 5 μL of 12× calcium in HBSS (12 mM) is added and changes in cellular fluorescence are measured with the FLIPR^384 plate reader. In each well, the change in the fluorescent signal as a function of time due to calcium entry into the cell is determined by calculating the difference between the fluorescent signal measured 7 seconds after calcium addition and the initial baseline fluorescence signal at time zero (t=0). This parameter is designated Upslope. The IC50 value is calculated as the concentration at which 50% of the Upslope is inhibited.

Compound	IC50 (Orai1/STIM1; Table iv)	IC50 (RBL-2H3 cells; Table iv)	IC50 (Orai1/STIM1; Table iii)	IC50 (RBL-2H3 cells; Table iii)	other results
Cc1nn(C(F)F)cc1-c1ccc(NC(=O)c2c(F)ccc(F)c2F)cc1	< 600 nM	< 600 nM			
Cn1nc(C(F)(F)F)cc1-c1ccc(NCc2ccccc2F)c(F)c1			600 to 1200 nM	> 1200 nM	
Cc1nc(C(F)(F)F)cn1-c1ccc(NC(=O)c2c(F)cccc2F)cc1F	> 1200 nM	600 to 1200 nM			
Cn1nc(C(F)(F)F)cc1-c1ccc(NCc2c(F)cc(F)cc2F)cc1F			< 600 nM	< 600 nM	
Cc1cc(C(F)(F)F)nn1-c1ccc(NC(=O)c2c(F)ccc(F)c2F)cc1	> 1200 nM	< 600 nM			
Cc1nn(C(F)F)cc1-c1ccc(NCc2c(F)cc(F)cc2F)cc1			< 600 nM	< 600 nM	
Cc1nnsc1CNc1ccc(-n2nc(C(F)(F)F)cc2C)cc1					Orai1/STIM1 (IC50, μmol) (Orai1/STIM1; Table iii): —; RBL-2H3 (IC50, μmol) (RBL-2H3 cells; Table iii): —
Cc1cc(F)ccc1CNc1ccc(-c2cc(C(F)(F)F)nn2C)c(F)c1			< 600 nM	< 600 nM	
Cc1cc2c(cc1-c1ccc(NC(=O)c3ccccc3F)cc1F)OC(F)(F)O2	> 1200 nM	< 600 nM			
Cc1ccccc1CNc1ccc(-c2nc(C(F)(F)F)sc2C)cc1			600 to 1200 nM	< 600 nM	
Cc1cccc(F)c1C(=O)Nc1ccc(-c2cn(C(F)F)nc2C)cc1	600 to 1200 nM	< 600 nM			
Cc1cc(C(F)(F)F)nn1-c1ccc(NC(=O)c2c(F)cncc2F)cc1	> 1200 nM	< 600 nM			
Fc1cnccc1CNc1ccc(-n2nc(C(F)(F)F)cc2C(F)(F)F)cc1			600 to 1200 nM	< 600 nM	
Cn1nc(C(F)(F)F)cc1-c1ccc(NCc2c(F)ccc(F)c2F)cc1			< 600 nM	< 600 nM	
Cc1cc2c(cc1-c1ccc(NC(=O)c3c(F)cccc3F)cc1F)OC(F)(F)O2	> 1200 nM	< 600 nM			
Cc1cc(F)ccc1C(=O)Nc1ccc(-c2cc(C(F)(F)F)nn2C)c(F)c1	< 600 nM	< 600 nM			
Fc1cccc(F)c1CNc1ccc(-n2nc(C(F)(F)F)cc2C(F)(F)F)cc1			600 to 1200 nM	< 600 nM	
Cc1nn(C(F)F)cc1-c1ccc(NC(=O)c2c(F)cc(F)cc2F)cc1	< 600 nM	< 600 nM			
Cc1cnccc1C(=O)Nc1ccc(-c2cc(C(F)(F)F)nn2C)c(F)c1	600 to 1200 nM	< 600 nM			
Cn1nc(C(F)(F)F)cc1-c1c(F)cc(NC(=O)c2c(F)cncc2F)cc1F	600 to 1200 nM	< 600 nM			

Compound	IC50 (Orai1/STIM1; Table iv)	IC50 (RBL-2H3 cells; Table iv)	IC50 (Orai1/STIM1; Table iii)	IC50 (RBL-2H3 cells; Table iii)	other results
Cc1cc(C(F)(F)F)nn1-c1ccc(NC(=O)c2c(F)cc(F)cc2F)cc1	600 to 1200 nM	< 600 nM			
Cc1nnsc1C(=O)Nc1ccc(-c2cc(C(F)(F)F)nn2C)c(F)c1	< 600 nM	< 600 nM			
Cn1nc(C(F)(F)F)cc1-c1ccc(NC(=O)c2c(F)cccc2F)c(F)c1	< 600 nM	< 600 nM			
Cc1cc(F)ccc1CNc1ccc(-n2cc(C(F)(F)F)nc2C)c(F)c1			> 1200 nM	< 600 nM	
Fc1ccccc1CNc1ccc(-n2nc(C(F)(F)F)cc2C(F)(F)F)cc1			< 600 nM	< 600 nM	
Cc1cc2c(cc1-c1ccc(NCc3ccncc3F)cc1)OC(F)(F)O2			600 to 1200 nM	< 600 nM	
Cc1ccccc1C(=O)Nc1ccc(-c2cn(C(F)F)nc2C)c(F)c1	< 600 nM	600 to 1200 nM			
CCn1nc(C(F)(F)F)cc1-c1ccc(NC(=O)c2c(F)cccc2F)cc1F	< 600 nM	< 600 nM			
Cc1nc(C(F)(F)F)cn1-c1ccc(NCc2ccccc2F)cc1F			< 600 nM	< 600 nM	
Cc1ccccc1C(=O)Nc1ccc(-c2nc(C(F)(F)F)sc2C)cc1	< 600 nM	< 600 nM			
Cn1nc(C(F)(F)F)cc1-c1c(F)cc(NC(=O)c2ccccc2F)cc1F	< 600 nM	< 600 nM			
Cc1nc(C(F)(F)F)cn1-c1ccc(NC(=O)c2c(F)cc(F)cc2F)cc1F	> 1200 nM	< 600 nM			
O=C(Nc1ccc(-n2nc(C(F)(F)F)cc2C(F)(F)F)cc1)c1ccncc1F	600 to 1200 nM	< 600 nM			
Cc1cc2c(cc1-c1ccc(NC(=O)c3ccncc3F)cc1)OC(F)(F)O2	600 to 1200 nM	< 600 nM			
Cc1cc2c(cc1-c1ccc(NC(=O)c3snnc3C)cc1)OC(F)(F)O2	600 to 1200 nM	< 600 nM			
Cn1nc(C(F)(F)F)cc1-c1c(F)cc(NC(=O)c2c(F)cccc2F)cc1F	> 1200 nM	< 600 nM			
Cc1ccccc1C(=O)Nc1ccc(-c2cc(C(F)(F)F)nn2C)c(F)c1	< 600 nM	< 600 nM			
Cn1nc(C(F)(F)F)cc1-c1ccc(NC(=O)c2c(F)ccc(F)c2F)cc1F	600 to 1200 nM	< 600 nM			
Cc1cc2c(cc1-c1ccc(NCc3snnc3F)cc1)OC(F)(F)O2			600 to 1200 nM	< 600 nM	
Cc1nnsc1CNc1ccc(-c2cc(C(F)(F)F)nn2C)c(F)c1			> 1200 nM	600 to 1200 nM	

Compound	IC50 (Orai1/STIM1; Table iv)	IC50 (RBL-2H3 cells; Table iv)	IC50 (Orai1/STIM1; Table iii)	IC50 (RBL-2H3 cells; Table iii)	other results
Cc1nc(C(F)(F)F)cn1-c1ccc(NCc2c(F)ccc(F)c2F)cc1F			< 600 nM	< 600 nM	
Cn1nc(C(F)(F)F)cc1-c1ccc(NC(=O)c2c(F)cccc2F)cc1F	< 600 nM	< 600 nM			
Cc1cnccc1CNc1ccc(-c2cc(C(F)(F)F)nn2C)c(F)c1			600 to 1200 nM	< 600 nM	
Cc1cc(F)ccc1CNc1ccc(-c2cc(C(F)F)nn2C)c(F)c1			600 to 1200 nM	< 600 nM	
Cc1cccc(F)c1CNc1ccc(-c2nc(C(F)(F)F)sc2C)cc1			600 to 1200 nM	< 600 nM	
Cc1nn(C(F)F)cc1-c1ccc(NC(=O)c2ccccc2F)cc1	600 to 1200 nM	600 to 1200 nM			
Cc1nn(C(F)F)cc1-c1ccc(NC(=O)c2c(F)cccc2F)cc1F	< 600 nM	< 600 nM			
Cc1cc2c(cc1-c1ccc(NCc3c(C)cccc3F)cc1F)OC(F)(F)O2				< 600 nM	Orai1/STIM1 (IC50, μmol) (Orai1/STIM1; Table iii): Max inh. <50%
Cc1cc2c(cc1-c1ccc(NC(=O)c3cncc(F)c3)cc1)OC(F)(F)O2	600 to 1200 nM	< 600 nM			
CCn1nc(C(F)(F)F)cc1-c1ccc(NCc2c(F)cccc2F)cc1F			600 to 1200 nM	< 600 nM	
Cc1ccccc1CNc1ccc(-c2cc(C(F)(F)F)nn2C)c(F)c1			< 600 nM	< 600 nM	
CCn1nc(C(F)(F)F)cc1-c1ccc(NCc2ccccc2F)cc1			< 600 nM	< 600 nM	
Cc1nn(C(F)F)cc1-c1ccc(NCc2ccccc2F)cc1			600 to 1200 nM	< 600 nM	
Cn1nc(C(F)(F)F)cc1-c1ccc(NC(=O)c2ccccc2F)cc1	< 600 nM	< 600 nM			
Cc1nc(C(F)(F)F)cn1-c1ccc(NCc2ccccc2F)cc1			< 600 nM	< 600 nM	
Cn1nc(C(F)(F)F)cc1-c1ccc(NC(=O)c2ccccc2F)cc1F	< 600 nM	< 600 nM			
Cc1nc(C(F)(F)F)cn1-c1ccc(NC(=O)c2c(F)cncc2F)cc1F	> 1200 nM	600 to 1200 nM			
Cc1sc(C(F)(F)F)nc1-c1ccc(NC(=O)c2c(F)cccc2F)cc1	< 600 nM	< 600 nM			
Cc1ncsc1C(=O)Nc1ccc(-c2cc(C(F)(F)F)nn2C)c(F)c1	< 600 nM	< 600 nM			
